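Protocol summary: plate cells (96-well), add compound at 5 concentrations, incubate 48 h, interpolate endpoints linearly. GI50 = concentration required for 50% inhibition of growth. TGI: concentration producing complete growth inhibition.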
Experiments:
Assay in all cases: NCI anticancer screen, dose series, 48 h
SF-268 CNS = test system: SF-268 CNS
A498 renal = test system: A498 renal
OVCAR-5 ovarian = test system: OVCAR-5 ovarian
DU-145 prostate = test system: DU-145 prostate
TK-10 renal = test system: TK-10 renal
SK-MEL-2 melanoma = test system: SK-MEL-2 melanoma
OVCAR-8 ovarian = test system: OVCAR-8 ovarian
PC-3 prostate = test system: PC-3 prostate
NCI-H460 lung = test system: NCI-H460 lung
SK-MEL-28 melanoma = test system: SK-MEL-28 melanoma
T-47D breast = test system: T-47D breast
M14 melanoma = test system: M14 melanoma
U251 CNS = test system: U251 CNS
SF-539 CNS = test system: SF-539 CNS
HCT-116 colon = test system: HCT-116 colon
SK-OV-3 ovarian = test system: SK-OV-3 ovarian
NCI-H226 lung = test system: NCI-H226 lung
HOP-92 NSCLC = test system: HOP-92 NSCLC
KM12 colon = test system: KM12 colon
SK-MEL-5 melanoma = test system: SK-MEL-5 melanoma
SW-620 colon = test system: SW-620 colon
A549 NSCLC = test system: A549 NSCLC
NCI-H522 lung = test system: NCI-H522 lung
BT-549 breast = test system: BT-549 breast
SR leukemia = test system: SR leukemia
UACC-257 melanoma = test system: UACC-257 melanoma
IGROV1 ovarian = test system: IGROV1 ovarian
OVCAR-4 ovarian = test system: OVCAR-4 ovarian
SNB-75 CNS = test system: SNB-75 CNS
CCRF-CEM leukemia = test system: CCRF-CEM leukemia
SF-295 CNS = test system: SF-295 CNS
ACHN renal = test system: ACHN renal
MOLT-4 leukemia = test system: MOLT-4 leukemia
786-0 renal = test system: 786-0 renal
EKVX NSCLC = test system: EKVX NSCLC
RXF 393 renal = test system: RXF 393 renal
HT29 colon = test system: HT29 colon
LOX IMVI melanoma = test system: LOX IMVI melanoma
UACC-62 melanoma = test system: UACC-62 melanoma
CAKI-1 renal = test system: CAKI-1 renal
UO-31 renal = test system: UO-31 renal
SNB-19 CNS = test system: SNB-19 CNS
MALME-3M melanoma = test system: MALME-3M melanoma
OVCAR-3 ovarian = test system: OVCAR-3 ovarian
HS 578T breast = test system: HS 578T breast
HL-60(TB) leukemia = test system: HL-60(TB) leukemia
SN12C renal = test system: SN12C renal
MDA-MB-231 breast = test system: MDA-MB-231 breast
MCF7 breast = test system: MCF7 breast
NCI/ADR-RES ovarian = test system: NCI/ADR-RES ovarian
HCT-15 colon = test system: HCT-15 colon
MDA-MB-435 = test system: MDA-MB-435
HCC-2998 colon = test system: HCC-2998 colon
HOP-62 NSCLC = test system: HOP-62 NSCLC
K-562 leukemia = test system: K-562 leukemia

[Cl][Ru].c1ccc(-c2cccc(-c3ccccn3)n2)nc1.c1ccc(-c2ccnc3c2ccc2c(-c4ccccc4)ccnc23)cc1
GI50 (SF-268 CNS): 4.17 µM
TGI (SF-268 CNS): > 100 µM
GI50 (A498 renal): 15.1 µM
TGI (A498 renal): 46.6 µM
GI50 (OVCAR-5 ovarian): 4.01 µM
TGI (OVCAR-5 ovarian): 19.5 µM
GI50 (DU-145 prostate): 4.84 µM
TGI (DU-145 prostate): > 100 µM
GI50 (TK-10 renal): 11.8 µM
TGI (TK-10 renal): 37.3 µM
GI50 (SK-MEL-2 melanoma): 1.96 µM
TGI (SK-MEL-2 melanoma): 5.13 µM
GI50 (OVCAR-8 ovarian): 5.35 µM
TGI (OVCAR-8 ovarian): 59 µM
GI50 (PC-3 prostate): 2.63 µM
TGI (PC-3 prostate): 10.6 µM
GI50 (NCI-H460 lung): 3.75 µM
TGI (NCI-H460 lung): > 100 µM
GI50 (SK-MEL-28 melanoma): 3.01 µM
TGI (SK-MEL-28 melanoma): 18 µM
GI50 (T-47D breast): 2.32 µM
TGI (T-47D breast): 8.35 µM
GI50 (M14 melanoma): 4.82 µM
TGI (M14 melanoma): 34.3 µM
GI50 (U251 CNS): 2.69 µM
TGI (U251 CNS): > 100 µM
GI50 (SF-539 CNS): 2.93 µM
TGI (SF-539 CNS): 19.9 µM
GI50 (HCT-116 colon): 3.16 µM
TGI (HCT-116 colon): > 100 µM
GI50 (SK-OV-3 ovarian): 2.3 µM
TGI (SK-OV-3 ovarian): 7 µM
GI50 (NCI-H226 lung): 4.66 µM
TGI (NCI-H226 lung): 25.7 µM
GI50 (HOP-92 NSCLC): 1.09 µM
TGI (HOP-92 NSCLC): 3.64 µM
GI50 (KM12 colon): 3.04 µM
TGI (KM12 colon): > 100 µM
GI50 (SK-MEL-5 melanoma): 6.55 µM
TGI (SK-MEL-5 melanoma): 44.4 µM
GI50 (SW-620 colon): 4.14 µM
TGI (SW-620 colon): 80.5 µM
GI50 (A549 NSCLC): 4.06 µM
TGI (A549 NSCLC): 75.4 µM
GI50 (NCI-H522 lung): 2.12 µM
TGI (NCI-H522 lung): 6.75 µM
GI50 (BT-549 breast): 2.26 µM
TGI (BT-549 breast): 6.46 µM
GI50 (SR leukemia): 2.65 µM
TGI (SR leukemia): 17.9 µM
GI50 (UACC-257 melanoma): 2.7 µM
TGI (UACC-257 melanoma): 14.2 µM
GI50 (IGROV1 ovarian): 2.93 µM
TGI (IGROV1 ovarian): 20.7 µM
GI50 (OVCAR-4 ovarian): 3.13 µM
TGI (OVCAR-4 ovarian): 26.7 µM
GI50 (SNB-75 CNS): 2.37 µM
TGI (SNB-75 CNS): 9.73 µM
GI50 (CCRF-CEM leukemia): 4.5 µM
TGI (CCRF-CEM leukemia): > 100 µM
GI50 (SF-295 CNS): 13.8 µM
TGI (SF-295 CNS): 56.7 µM
GI50 (ACHN renal): 21.2 µM
TGI (ACHN renal): > 100 µM
GI50 (MOLT-4 leukemia): 3.51 µM
TGI (MOLT-4 leukemia): 24.5 µM
GI50 (786-0 renal): 13.2 µM
TGI (786-0 renal): 62.7 µM
GI50 (EKVX NSCLC): 3.22 µM
TGI (EKVX NSCLC): 23.3 µM
GI50 (RXF 393 renal): 3.43 µM
TGI (RXF 393 renal): 19 µM
GI50 (HT29 colon): 3.08 µM
TGI (HT29 colon): 12 µM
GI50 (LOX IMVI melanoma): 3.04 µM
TGI (LOX IMVI melanoma): > 100 µM
GI50 (UACC-62 melanoma): 1.97 µM
TGI (UACC-62 melanoma): 5.53 µM
GI50 (CAKI-1 renal): 13.8 µM
TGI (CAKI-1 renal): 36.6 µM
GI50 (UO-31 renal): 6.31 µM
TGI (UO-31 renal): > 100 µM
GI50 (SNB-19 CNS): 3.33 µM
TGI (SNB-19 CNS): 21.7 µM
GI50 (MALME-3M melanoma): 2.42 µM
TGI (MALME-3M melanoma): 7.52 µM
GI50 (OVCAR-3 ovarian): 3.36 µM
TGI (OVCAR-3 ovarian): > 100 µM
GI50 (HS 578T breast): 2.6 µM
TGI (HS 578T breast): 8.63 µM
GI50 (HL-60(TB) leukemia): 1.62 µM
TGI (HL-60(TB) leukemia): 4.03 µM
GI50 (SN12C renal): 2.87 µM
TGI (SN12C renal): 10.8 µM
GI50 (MDA-MB-231 breast): 3 µM
TGI (MDA-MB-231 breast): 12.5 µM
GI50 (MCF7 breast): 2.41 µM
TGI (MCF7 breast): 13.4 µM
GI50 (NCI/ADR-RES ovarian): 10 µM
TGI (NCI/ADR-RES ovarian): > 100 µM
GI50 (HCT-15 colon): 22.4 µM
TGI (HCT-15 colon): > 100 µM
GI50 (MDA-MB-435): 2.77 µM
TGI (MDA-MB-435): 11 µM
TGI (HCC-2998 colon): 20.1 µM
GI50 (HOP-62 NSCLC): 4.11 µM
TGI (HOP-62 NSCLC): 27.9 µM
GI50 (K-562 leukemia): 1.67 µM
TGI (K-562 leukemia): > 100 µM

— PubChem BioAssay (NCI)
